Tests used:
[1] = tested on: total elastin in porcine tissue; assay: CML modification levels of total elastin in porcine tissue; conditions: MB PDT vs untreated samples and pentagalloyl glucose; less than glutaraldehyde
[2] = tested on: IL-1B, IL-6 and IL-10; assay: Serum cytokine ELISAs after MB PDT; format: in vivo, mice; conditions: MB PDT vs controls
Source text: The formation and progression of AAA can be characterized by the degradation of the extracellular matrix (ECM) and the concurrent infiltration of immune cells into the aortic wall. To assess if MB PDT affects the extracellular matrix (ECM) of the aortic aneurysms, cross-sections of the aneurysms of the above mice which have undergone AAA induction and concurrently treated with MB PDT and the respective controls were stained with Verhoeff-Van Gieson (VVG) for elastin, Massons Trichrome for collagen and CD3 antibody for T-cells and CD68 antibody for macrophages for immune cell infiltration (FIG. 2A). […] Similarly, a compensatory effect of collagen expression into the elastin layer was observed (pointed by arrows) after PDT treatment compared to both vehicle-treated positive controls and sham controls. […] To assess if T-cells and macrophage infiltration is modulated in aneurysms upon treatment with MB PDT, the aneurysm cross-sections were stained for CD3 and CD68, markers for T-cells and macrophages, respectively. CD3 and CD68 staining were reduced after MB PDT treatment compared to vehicle treated controls (FIG. 2A). […] To assess if this benefit on elastin degradation and immune cell infiltration was due to any systemic decrease in circulating cytokine levels known to be associated with aneurysm growth, cytokines such as IL-1B, IL-6 and IL-10, serum cytokine levels were measured. […]

[3] = Tissue rigidity assay (forceps test), healthy mouse aortic tissue ex vivo; design: species or system mice; conditions: MB PDT ex vivo
Method: (§1) (FIG. 7A). The stiffness maximized at 120 mins exposure for mouse tissue. […] To assess if this benefit of MB PDT on mechanical strength is true in a pathological setting, MB PDT treatment was done of on mouse aneurysms in vivo and the stiffness was assessed ex vivo (FIG. 7C).
(§2) Mouse aneurysms and aortic tissue were treated with MB PDT and vehicle in vivo and ex vivo.

[4] = biological target: T1, Recombinant Tropoelastin (Homo sapiens, UniProt P15502); assay: CML levels in recombinant tropoelastin treated with MB PDT; format: biochemical; conditions: MB PDT vs untreated tropoelastin and methylene blue without light
T1 sequence (P15502 27-786): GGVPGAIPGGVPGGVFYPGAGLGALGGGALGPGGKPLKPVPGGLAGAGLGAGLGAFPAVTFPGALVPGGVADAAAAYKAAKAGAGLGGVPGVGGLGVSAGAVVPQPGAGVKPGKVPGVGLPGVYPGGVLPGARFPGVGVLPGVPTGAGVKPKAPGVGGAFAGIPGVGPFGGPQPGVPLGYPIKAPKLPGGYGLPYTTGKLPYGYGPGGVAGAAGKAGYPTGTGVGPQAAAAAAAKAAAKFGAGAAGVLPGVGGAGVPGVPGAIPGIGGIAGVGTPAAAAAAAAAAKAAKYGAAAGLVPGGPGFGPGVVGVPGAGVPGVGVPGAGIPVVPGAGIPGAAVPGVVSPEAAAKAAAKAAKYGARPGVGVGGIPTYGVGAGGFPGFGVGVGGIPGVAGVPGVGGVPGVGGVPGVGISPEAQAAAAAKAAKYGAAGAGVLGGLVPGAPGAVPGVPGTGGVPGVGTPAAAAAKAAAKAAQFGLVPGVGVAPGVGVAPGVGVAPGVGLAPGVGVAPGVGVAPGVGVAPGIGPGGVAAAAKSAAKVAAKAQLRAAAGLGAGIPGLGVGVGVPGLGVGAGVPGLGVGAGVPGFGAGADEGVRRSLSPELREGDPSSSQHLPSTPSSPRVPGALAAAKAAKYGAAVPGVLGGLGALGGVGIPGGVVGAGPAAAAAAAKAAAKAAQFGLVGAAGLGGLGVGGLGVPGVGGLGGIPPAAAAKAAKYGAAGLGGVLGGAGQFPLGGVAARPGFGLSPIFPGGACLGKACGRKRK

[5] = tested on: established AAAs; assay: MB PDT on pre-established and progressive aneurysms 21 days after induction surgery; format: in vivo, mice
Method: The photosensitizer dye methylene blue (M291-100) was used for photodynamic therapy treatment (MB-PDT). MB-PDT was applied at two time points during the experiment. To test the effect of MB-PDT on AAA formation, MB-PDT was done directly after the PPE saline wash (PODO). To investigate the effect of MB-PDT on AAA growth, Laparotomy and MB-PDT was performed 21 days postoperatively, covering the whole aneurysm (POD21). MB-PDT involves applying 10 ul of 10:1 MB Solution in DPBS (M291-100:21-030-CV) topically to the whole aneurysm, which was carefully dissected from surrounding tissue. Gauze was placed on either side of the aneurysm to absorb excess MB. The aneurysm was then irradiated for 25 min at an irradiance of 30 mW/cm^2 and fluence of 45 J/cm^2 (660 nm LED, Thor M660L4). Throughout the course of irradiation, 5 ul of MB was applied to the aneurysm every 2.5 min to prevent the tissue from drying out. After irradiation, the MB was washed with two changes of sterile saline. For the MB only group, the total amount of MB was applied topically to the aneurysm for five minutes and washed. For the light only group, the aneurysm was irradiated for 25 min, with 5 ul of sterile saline applied every 2.5 min to prevent tissue desiccation. For POD21 positive controls, a laparotomy was performed with no additional treatment.
Aneurysm size was tracked by weekly ultrasound surveillance.
In certain instances, AAA often goes undiagnosed or is diagnosed late, thus it is important to know if MB PDT can not only prevent AAA formation but also reduce or arrest progressive aneurysm growth. To evaluate the efficacy of MB PDT to inhibit the progression of AAA, MB PDT was administered to mice with pre-established and progressive aneurysms 21 days after the initial aneurysm induction surgery with elastase. […] Similar to the measurements done in the study of MB PDT upon AAA induction in FIG. 1, the maximum aortic diameters were measured using ultrasound, averaging anterior-posterior (AP) and transverse (TRV) dimensions for accuracy. […]

[6] = Tissue rigidity assay, porcine aorta ex vivo
[7] = tested on: mouse aneurysms; assay: Tissue rigidity assay, mouse aneurysms treated in vivo, stiffness assessed ex vivo; conditions: post-MB PDT in vivo vs vehicle treatment controls
Method: as §1, §2

[8] = Ex vivo elastase degradation assay with VVG staining; design: species or system pigs; conditions: MB PDT 20 min irradiance of 150 mW/cm^2, before recombinant elastase; vs Veh only
Method: Human and porcine aorta were thawed from −80 C to RT. Tissue was then cut into ~1 cm×1 cm squares and briefly rinsed with HBSS. Tissues were then split into two groups: control and PDT. Control tissues were kept in HBSS at RT for one hour, and treated tissues were subjected to 150 mW NIR light for 20 mins in 100 μg/ml methylene blue, with the lumen side facing the light. Then each group was further split into two groups, no elastase and elastase treatment. Treatment involved a 2 hour incubation at 37 C in 10% Porcine Pancreatic Elastase (E1250-25 MG). After treatment all tissues were briefly rinsed, dried on a paper towel, and frozen in OCT. Tissue was sectioned at 10 μm by cryotome for the cross-section and stained using Van Gieson (Statlab KTVELLT). Images were taken at 20× and 100× on a Keyence BZ-X700 Fluorescence Microscope.
To assess if MB PDT can protect aortic tissue from elastase-induce extracellular matrix degradation, aortic tissue were procured from pigs and subjected to MB PDT (20 min irradiance of 150 mW/cm^2) or Veh only treatment ex vivo before recombinant elastase treatment. Comparative analysis of the cross-sections of these tissues were sought to ascertain the consistency of PDT's protective effects across different biological species. […]

[9] = tested on: aortic aneurysm cross-sections; assay: Histology and IHC staining of aneurysm cross-sections after MB PDT at AAA induction; format: in vivo, mice
Source text: The formation and progression of AAA can be characterized by the degradation of the extracellular matrix (ECM) and the concurrent infiltration of immune cells into the aortic wall. To assess if MB PDT affects the extracellular matrix (ECM) of the aortic aneurysms, cross-sections of the aneurysms of the above mice which have undergone AAA induction and concurrently treated with MB PDT and the respective controls were stained with Verhoeff-Van Gieson (VVG) for elastin, Massons Trichrome for collagen and CD3 antibody for T-cells and CD68 antibody for macrophages for immune cell infiltration (FIG. 2A). […] Similarly, a compensatory effect of collagen expression into the elastin layer was observed (pointed by arrows) after PDT treatment compared to both vehicle-treated positive controls and sham controls. […] To assess if T-cells and macrophage infiltration is modulated in aneurysms upon treatment with MB PDT, the aneurysm cross-sections were stained for CD3 and CD68, markers for T-cells and macrophages, respectively. CD3 and CD68 staining were reduced after MB PDT treatment compared to vehicle treated controls (FIG. 2A). […] To confirm if there is an improvement in elastin degradation, clinical scoring as per an established protocol was performed by blinded investigators. […] To assess if this benefit on elastin degradation and immune cell infiltration was due to any systemic decrease in circulating cytokine levels known to be associated with aneurysm growth, cytokines such as IL-1B, IL-6 and IL-10, serum cytokine levels were measured.
Fresh tissue was fixed in 10% neutral buffered formalin (Azer Scientific, PFNBF-90) for 24 hours before being transferred to 70% EtOH. […] After paraffin embedding, sections were cut at 5 um for staining (AML Laboratories). Sections were then stained with H&E (VWR 95057-844, 95057-848), Van Gieson (Statlab Medical Products, KTVELLT), and Masson's Trichrome (CP Lab Chemicals, TRM-500). For IHC, standard immunohistochemistry procedures for 5 μm-thick aorta sections were used. In brief, after deparaffinization, endogenous peroxidase activity was quenched by placing the slides into 3% hydrogen peroxide (H2O2) for 10 min. Sections were immersed in preheated 10 mM citric acid (VWR., Radnor, PA., USA), pH 6.0, for 30 min and cooled in cold water. Sections were then blocked in 5% goat serum (Vector Laboratories, Burlingame, Calif., USA) for 20 min before being incubated overnight at 4° C. in a solution of rabbit anti-CD3 (0.4 μg/ml; ab5690; Abcam, Cambridge, MA., USA) antibody, rabbit anti-CD31 (ERP1729; 0.4 μg/ml; ab182981; Abcam) antibody, rabbit alpha smooth muscle Actin (SMA; 0.067 μg/ml; ab5694; Abcam), rabbit anti-CD68 (ERP23917; 2.0 μg/ml; ab283667; Abcam), and rabbit anti-Interleukin-1 receptor type 1 (IL1R1; 2.0 μg/ml; PAS-98766; Thermo Fisher, Eugene, OR., USA) in PBS. The next day, the sections were exposed to the biotinylated biotinylated goat-anti-rabbit IgG secondary antibody (15 μg/ml; Vector Laboratories) in PBS for 1 h followed by avidin-biotin complex for 1 h (1:200, ABC; Vector Laboratories). The reactions were visualized with 3,3′-diaminobenzidine (Millipore-Sigma) for 10 min and counterstained with Gill's Haematoxylin (Thermo Scientific) for 30 seconds. Finally, the sections were dehydrated, cleared in xylene and cover slipped. […]
For quantification of elastin using Van Gieson, an elastin scoring guide was used. […]

[10] = after MB PDT vs vehicle treated controls

- CML levels [4]: significant increase
- degradation on incubation with recombinant elastase ([6]; porcine aorta after MB PDT, more resistance at higher light intensity (60 mW versus 120 mW)): resistant to degradation
- resistance to elastase-induced ECM degradation (VVG elastin staining) [8]: significant resistance
SMILES: CN(C)c1ccc2nc3ccc(N(C)C)cc3[s+]c2c1 [MB, methylene blue]
- CML modification levels [1]: significant increase
- serum cytokine levels (IL-1B, IL-6, IL-10) [2]: No significant differences
- light exposure at which stiffness maximized [3]: 120 min
- vascular stiffness (forceps test) [3]: increased with duration of light exposure
- aneurysm diameter on week 9 ([5]; MB PDT on day 21, vs vehicle treated group): decrease
- enlargement of established AAAs (weekly ultrasound) ([5]; MB PDT on day 21 post-induction, vs vehicle-treated controls): significantly reduced
- morphological images and micrometric measurements of AAAs ([5]; treated vs vehicle): marked differences
- stiffness benefit in porcine aorta ([6]; MB PDT, exposure requirement higher, visually less striking): consistent
- stiffness of the aneurysm [7]: clear improvement
- elastin degradation, clinical scoring by blinded investigators ([9]; MB PDT treated group): trend towards improvement
- CD3 staining (T-cells) [9, 10]: reduced
- CD68 staining (macrophages) [9, 10]: reduced
- elastin degradation (VVG staining) [9, 10]: reduction of elastin degradation
- collagen degradation in the adventitia (Massons Trichrome) ([9]; after PDT vs vehicle treated controls and sham mice): less collagen degradation

From patent US20260232817A1, “Activatable Drug Conjugates and Therapeutic Applications Thereof” (California Institute of Technology, priority 2023, published 2026)
